Laboratory results as given in publication PMC4805251, “Novel Antimicrobial Peptides EeCentrocins 1, 2 and EeStrongylocin 2 from the Edible Sea Urchin Echinus esculentus Have 6-Br-Trp Post-Translational Modifications” (PLoS ONE, 2016).
Read-outs that look alike come from different tables or passages of the source. Bridge positions count the residues as written; N and C are the ends. Square brackets hold non-standard residues; d marks the D form. Ends that are not written are not given here. I, II: the chains in the order shown. Trp(6-Br) = N[C@@H](Cc1c[nH]c2cc(Br)ccc12)C(=O)O

Legend:
Type in all cases: cell-based
[1] = test system: Corynebacterium glutamicum (ATCC 13032)
Description: (§1) Organic phase extract, SPE eluates and HPLC-fractions were screened for antibacterial activity against two strains of Gram-positive and two strains of Gram-negative bacteria; Corynebacterium glutamicum (ATCC 13032), Staphylococcus aureus (ATCC 9144), Pseudomonas aeruginosa #1 (ATCC 27853) and Escherichia coli #1 (ATCC 25922). For extended antimicrobial bioactivity screening, the following bacterial strains were used, three strains of Gram-positive bacteria; S. epidermidis #1 (5179-R1) kindly provided by Holger Rohde, S. epidermidis #2, RP62A (ATCC 35984) and Bacillus subtilis (ATCC 23857) in addition to the Gram-negative P. aeruginosa #2, PA 01 (ATCC 15692, DSM 19880) and E. coli #2, NR 698 (MC4100/ptD4213).
(§2) Cultures stored at -80°C were smeared onto agar plates and cultured for 24 h at 35°C. One colony of each bacterial strain was transferred to 5 ml liquid Müller-Hinton (MH, Difco, Lawrence, KS, USA) medium in a glass tube and left shaking at room temperature overnight at 600 rpm. The cultures of actively growing bacteria (20 μl) were further inoculated in 5 ml MH medium and left shaking for 2 h at room temperature. The antibacterial assays were performed as previously described by. Briefly, the bacterial cultures were diluted with medium to 1.3–1.5 × 10^4 bacteria/ml final concentrations and an aliquot of 50 μl was added to each well in 96-well Nunclon^TM microtiter plates (Nagle Nunc Int., Denmark) preloaded with 50 μl test sample solutions, i.e. extracts, eluates or peptides.
(§3) The test plates were incubated for 24 h at 35°C with optical density (OD595) recorded every hour using an Envision 2103 multilabel reader, controlled by the Wallac Envision manager (PerkinElmer, CT, USA). Antibacterial activity was defined as a sample showing >90% inhibition (as measured by optical density) compared to the negative (growth) controls, consisting of bacteria and water. Oxytetracycline (20 μM) served as a positive (inhibition) control. The minimum inhibitory concentration (MIC) was defined as the lowest concentration of a sample displaying >90% inhibition.
(§4) ACN-phases and SPE eluates were tested with two-fold serial dilutions ranging from 5.0 to 0.005 mg/ml (5.0, 2.5, 1.25, 0.63, 0.31, 0.16, 0.08, 0.04, 0.02, 0.01, 0.005 mg/ml) whereas HPLC-fractions were tested undiluted for antibacterial activity. Pure, native peptides and synthetic peptides (described in section 2.11) were tested for antimicrobial activity in concentrations ranging from 100 to 0.1 μM in two-fold serial dilutions (100, 50, 25, 12.5, 6.25, 3.13, 1.56, 0.78, 0.39, 0.20, 0.10 μM). Antimicrobial assays involving natural peptides (i.e. fractionated natural material) were run only once due to limited quantities, whereas all other assays were run in triplicates.

[2] = test system: Escherichia coli #1 (ATCC 25922)
Description: as §1, §2, §3, §4

[3] = test system: Pseudomonas aeruginosa #1 (ATCC 27853)
Description: as §1, §2, §3, §4

[4] = test system: Staphylococcus aureus (ATCC 9144)
Description: as §1, §2, §3, §4

human red blood cells = test: Haemolytic activity assay
Protocol: Synthesised peptide analogues of EeCentrocin 1 and 2 were screened for eukaryotic cell-toxicity with a haemolytic activity assay using human red blood cells as described previously. The assay was performed on 96-well U-shaped microtiter plates (Nagle Nunc) with 50 μl peptide sample, 40 μl phosphate-buffered saline (PBS) and 10 μl red blood cells. The final peptide concentrations ranged from 100 to 0.1 μM in two-fold serial dilutions. After one hour of incubation at 37°C in a shaker, the plate was centrifuged at 200 g for 5 min and the supernatants (60 μl) were carefully transferred to a new flat-bottomed polycarbonate microtiter plate (Nagle Nunc) and absorbance at 550 nm was measured on a Synergy H1 multimode reader (BioTek, VT, USA). Cell suspension added 0.05% Triton X-100 (Sigma-Aldrich, MO, USA) in PBS served as positive (100% haemolysis) control and cell suspension added PBS served as negative (0% haemolysis) control. The percent haemolysis was calculated using the formula [(Asample-Abaseline)/(Atriton-Abaseline)]×100. The experiment was performed in duplicates.

[5] = MH medium, 24 h at 35°C, OD595, lowest concentration with >90% inhibition, value of Table 2, native peptides run once, synthetic in triplicates
[6] = MH medium, 24 h at 35°C, OD595, >90% inhibition, value of Table 2, native peptides run once, synthetic in triplicates

## I: G[Trp(6-Br)][Trp(6-Br)]RRTVDKVRNAGRKVAGFASKACGALGH-OH / II: DIGKYCGYAHALN-NH2 (disulfide I:25-II:6) [EeCentrocin 1]
[1]; ATCC 13032, 24 h
  MIC C. glutamicum: 0.78 µM
[2]; ATCC 25922, 24 h
  MIC E. coli #1: 0.1 µM
[3]; ATCC 27853, 24 h
  MIC P. aeruginosa #1: 0.78 µM
[4]; ATCC 9144, 24 h
  MIC S. aureus: 0.78 µM

## Triton X-100 [Lysis (0.05% Triton X-100), reference compound]
Human red blood cells
  Absorbance at 550nm, lysis control: 0.24

## XNPFKKIAHRXCYPKNE (bicyclic or more) [EeStrongylocin 2, cysteine-rich antimicrobial peptide from E. esculentus with 3 disulphide bonds and a 6-Br-Trp]
[1]; [5]
  MIC C. glutamicum: 1.56 µM
[2]; [6]
  MIC E. coli #1: 0.78 µM
[3]; [6]
  MIC P. aeruginosa #1: 1.56 µM
[4]; [5]
  MIC S. aureus: 3.13 µM
